Experimental data published in patent US20210093531A1, “DERIVATIVES OF MENTHOL AND USES THEREOF” (Board of Trustees of Northern Illinois University, priority 2019, published 2021).
Marks after values point to notes of the source that are not given here.

Key:
[1] = system: trained panelists; test: time-intensity analysis of cooling, lozenge application; format: in vivo; conditions: 4-minute window
Method: In order to evaluate the potential use of menthol glycinates as […] different food, beverage and oral hygiene products, select compounds were incorporated in different application systems. A beverage model system, a lozenge and a mouthwash application were created, and time-intensity analysis was performed using trained discrimination analysis panelists. Time-Intensity (TI) is a temporal sensory method. During TI evaluations, assessors are asked to score the intensity of perception of a single attribute over consumption of the product. Compared to single point measurements, TI analysis can characterize the onset, decline and rates thereof, of particular sensory characteristics. This analysis may reveal rich information regarding the intensity of an attribute over the time domain and identify temporal perceptual differences among samples that can greatly impact the overall profile of a product. For each sample evaluation, a temporal curve is generated, based on duplication. The temporal curves for each panelist are combined to generate a combined curve for each product that is evaluated. The following distinct parameters were calculated: Imax: peak intensity or maximum observed intensity on the whole curve; […]: time point where the reaction to the stimulus is first perceived on the curve; Tmax: time position of the peak intensity on the curve; Tplateau: protraction of maximum intensity or duration of maximum intensity; Text: time point of extinction of the perception of the stimulus, defined as the position in time after the peak intensity where the measured intensity disappears (or the end of evaluation window); Iext: intensity at time of extinction or end of evaluation; R increase: slope or rate of intensity increase between […] and Tmax; R decrease: slope or rate of intensity decrease between Tmax and Text; and Area: the total area under the time-intensity curve. The formula detailed in Table 4 was employed to create the lozenge application to evaluate menthol glycinates of interest using time-intensity analysis. [table] For time-intensity (T-I) evaluation of the cooling intensity of lozenges, 9 panelists were recruited (3 male, 6 female). Panelists were trained in basic taste descriptive analysis. A sweetness reference series (intensity range 2-12) was provided to be used as cross-modality reference to aid in scaling the intensity of the cool attribute present in the lozenge samples. Panelists evaluated samples in duplicates and all samples were presented blinded and in a randomized order using a 3-digit code. Panelists were instructed to provide cooling intensity at predetermined time points throughout an evaluation window of 4 minutes. […] Evaluations were performed with at least 4 hours between them to ensure no carry over. Data analysis for generation of T-I statistics and ANOVA analysis to determine significant difference among samples was performed using R STUDIO.

[2] = system: trained panelists; test: time-intensity analysis of cooling, mouthwash application; format: in vivo; conditions: for Iext (cooling intensity at end of evaluation): 15 minutes after expectoration
Method: In order to evaluate the potential use of menthol glycinates as […] different food, beverage and oral hygiene products, select compounds were incorporated in different application systems. A beverage model system, a lozenge and a mouthwash application were created, and time-intensity analysis was performed using trained discrimination analysis panelists. Time-Intensity (TI) is a temporal sensory method. During TI evaluations, assessors are asked to score the intensity of perception of a single attribute over consumption of the product. Compared to single point measurements, TI analysis can characterize the onset, decline and rates thereof, of particular sensory characteristics. This analysis may reveal rich information regarding the intensity of an attribute over the time domain and identify temporal perceptual differences among samples that can greatly impact the overall profile of a product. For each sample evaluation, a temporal curve is generated, based on duplication. The temporal curves for each panelist are combined to generate a combined curve for each product that is evaluated. The following distinct parameters were calculated: Imax: peak intensity or maximum observed intensity on the whole curve; […]: time point where the reaction to the stimulus is first perceived on the curve; Tmax: time position of the peak intensity on the curve; Tplateau: protraction of maximum intensity or duration of maximum intensity; Text: time point of extinction of the perception of the stimulus, defined as the position in time after the peak intensity where the measured intensity disappears (or the end of evaluation window); Iext: intensity at time of extinction or end of evaluation; R increase: slope or rate of intensity increase between […] and Tmax; R decrease: slope or rate of intensity decrease between Tmax and Text; and Area: the total area under the time-intensity curve. The formula shown in Table 8 was employed to create a mouthwash product to evaluate […] of interest using time-Intensity analysis. [table] The following test compounds were evaluated: menthol, XI-I-60, RK-2-10, XI-I-65, DK-1-50, and XI-2-73. For time-intensity (T-I) evaluation of the cooling attributes of mouthwash products, 8 panelists were recruited (2 male, 6 female). Panelists were trained in basic taste descriptive analysis. A sweetness reference series (intensity range 2-12) was provided to be used as cross-modality reference to aid in scaling the intensity of the cooling attribute present in the mouthwash samples. Panelists evaluated samples in duplicates and all sample were presented blinded and in a randomized order using a 3-digit code. Panelist evaluated 15 ml of mouthwash at a time and were instructed to rinse for 30 seconds and expectorate. Panelists were instructed to provide cooling intensities before and after expectoration. For the time before expectoration, evaluation started upon introducing the sample and every 10 seconds thereafter. After expectoration, the evaluation continued for 15 minutes and panelists provided cooling intensity ratings at predetermined times. Due to the unique nature of this product and the interest in prolonging the cooling attribute long after consumption, an additional parameter led was evaluated among samples via ANOVA. This parameter is the cooling intensity at time of extinction or in our case the end of evaluation. Data analysis for generation of T-I statistics and ANOVA analysis to determine significant difference among samples was performed using R STUDIO.

[3] = estimated, relative to menthol; cited from earlier work
[4] = after expectoration for 15 minutes (Table 9b)
[5] = rinse phase 30 seconds (Table 9a)

Row | Compound | Iext (cooling intensity at end of evaluation) [2] | AUC [2, 4] | AUC (total area under time-intensity curve) [1] | I max [2, 4] | Rdec [2, 4] | Tmax [2, 4] | Tstart [2, 4] | AUC [2, 5] | Rinc [2, 5] | Tstart [2, 5] | times cooler than menthol (cooling potential) [3] | other results
1 | CC(C)NCC(=O)O[C@@H]1C[C@H](C)CC[C@H]1C(C)C [Product 7, (1R,2S,5R)-2-Isopropyl-5-methylcyclohexyl 2-(isopropylamino)acetate] | significantly higher cooling intensity | significantly higher | – | – | – | – | – | – | – | – | – | Tstart (time cooling first perceived) [1]: significantly delayed cooling onset; Imax [2, 5]: trending higher; Rdec [2, 5]: significantly lower R decrease
2 | CC(C)[C@@H]1CC[C@@H](C)C[C@H]1OC(=O)CNC1CC1 [Product 12, (1R,2S,5R)-2-isopropyl-5-methylcyclohexyl 2-(cyclopropylamino)acetate] | – | 5211.25^bc | not significantly different than menthol | 13.20^ab | −0.01^b | 32.50^a | 30.00^a | 186.88^a | 0.23^a | 10.00^a | – | Iext (cooling intensity at end of evaluation) ([2]; listed as XI-1-66): significantly higher cooling intensity; Iext (cooling intensity at end of evaluation) ([2]; listed as XI-I-65): 2.18^b; Rinc ([2]; after expectoration for 15 minutes (Table 9b), listed as XI-I-65): 0.03^b; Rinc ([2]; after expectoration for 15 minutes (Table 9b), listed as XI-I-66): positive and significantly higher compared to that of menthol; Rdec ([2]; rinse phase 30 seconds (Table 9a), listed as XI-165): significantly lower R decrease; Rdec ([2]; rinse phase 30 seconds (Table 9a), listed as XI-I-65): 0.00^b
3 | CC(C)[C@@H]1CC[C@@H](C)C[C@H]1C(=O)NCCc1ccccn1 [amide 19] | – | – | – | – | – | – | – | – | – | – | about 100 times | –
4 | Cc1cc2ccccc2n1CCNC(=O)[C@@H]1C[C@H](C)CC[C@H]1C(C)C [compound 1] | – | – | – | – | – | – | – | – | – | – | ~1000 times | –
5 | (1R,2S,5R)-2-Isopropyl-5-methylcyclohexyl 2-(benzyl(methyl)amino)acetate [Product 15] | 0.67^a | 4082.50^ac | – | 13.50^ab | −0.01^b | 32.50^a | 30.00^a | 179.79^a | 0.21^a | 10.00^a | – | –
6 | (1R,2S,5R)-2-isopropyl-5-methylcyclohexyl 2-(cyclopropylamino)acetate [Product 12] | – | – | 1945.31^bc | – | – | – | – | – | – | – | – | RDec (rate of intensity decrease) [1]: 0.042^ab; RInc (rate of intensity increase) [1]: 0.042^ab; Tmax (time of peak intensity) [1]: 206.25^a
